{"source": "patent US20050165085A1", "about": "“Polymorphic forms of tegaserod base and salts thereof” (priority 2003, published 2005)", "key": {"[1]": {"assay": "Heating of tegaserod maleate polymorphic forms, form after heating", "format": "physicochemical", "details": "for Polymorphic transformation / thermal stability upon heating: statement in text, temperature not given", "text": "X-Ray powder diffraction data were obtained using by method known in the art using a SCINTAG powder X-Ray diffractometer model X'TRA equipped with a solid state detector. Copper radiation of 1.5418 Å was used. A round aluminum sample holder with zero background was used. All peak positions are within ±0.2 degrees two theta."}, "[2]": {"assay": "Solubility of tegaserod acetate Form J compared with tegaserod base", "format": "physicochemical", "details": "solvent not stated"}, "[3]": {"details": "Physician's Desk Reference, 57th Ed., cited from earlier work"}}, "note": "“Also recorded” adds a separate entry of the source.", "data": [{"compound": "CCCCCNC(=N)N/N=C/c1c[nH]c2ccc(OC)cc12.O=C(O)/C=C\\C(=O)O", "note": "[Form B, Tegaserod maleate]", "values": [{"measurement": "Polymorph form after heating", "setting": "[1]; 2 hr. at 100 deg., listed as B (wet)", "value": "B > C + A"}, {"measurement": "Polymorph form after heating", "setting": "[1]; 2 hr. at 120 deg., listed as B (wet)", "value": "A > C"}, {"measurement": "Polymorphic transformation / thermal stability upon heating", "setting": "[1]", "value": "transform to Form C upon heating before it transforms to Form A"}, {"measurement": "Polymorphic transformation / thermal stability upon heating", "setting": "[1]; listed as B", "value": "transform to Form A upon heating"}]}, {"compound": "CCCCCNC(=N)N/N=C/c1c[nH]c2ccc(OC)cc12.O=C(O)/C=C\\C(=O)O", "note": "[Form B2, Tegaserod maleate]", "values": [{"measurement": "Polymorph form after heating", "setting": "[1]; 2 hr. at 80 deg.", "value": "B + C + A"}, {"measurement": "Polymorph form after heating", "setting": "[1]; 2 hr. at 100 deg.", "value": "B + C + A"}, {"measurement": "Polymorph form after heating", "setting": "[1]; 2 hr. at 120 deg.", "value": "C + A"}, {"measurement": "Polymorph form after heating", "setting": "[1]; 2 hr. at 140 deg., listed as B2", "value": "C + A"}, {"measurement": "Polymorphic transformation / thermal stability upon heating", "setting": "[1]", "value": "transform to Form A upon heating"}]}, {"compound": "Tegaserod acetate [Tegaserod acetate Form J]", "values": [{"measurement": "Solubility relative to tegaserod base", "setting": "[2]", "value": "less soluble than tegaserod base"}]}, {"compound": "CCCCCNC(=N)N/N=C/c1c[nH]c2ccc(OC)cc12.O=C(O)/C=C\\C(=O)O", "note": "[tegaserod as the maleate salt, Tegaserod maleate]", "values": [{"measurement": "Solubility in ethanol", "setting": "[3]; ethanol", "value": "slightly soluble"}, {"measurement": "Solubility in water", "setting": "[3]; water", "value": "very slightly soluble"}]}, {"compound": "CCCCCNC(=N)N/N=C/c1c[nH]c2ccc(OC)cc12.O=C(O)/C=C\\C(=O)O", "note": "[Form B1, Tegaserod maleate]", "values": [{"measurement": "Polymorphic transformation upon heating, assumed from DSC curves", "setting": "[1]; assumed from DSC curves, all forms show the melting peak of Form A", "value": "transform to Form A upon heating"}]}, {"compound": "CCCCCNC(=N)N/N=C/c1c[nH]c2ccc(OC)cc12.O=C(O)/C=C\\C(=O)O", "note": "[Form D, Tegaserod maleate]", "values": [{"measurement": "Polymorphic transformation / thermal stability upon heating", "setting": "[1]", "value": "transformation to Form A; also recorded: transforms to Form A upon heating"}]}, {"compound": "CCCCCNC(=N)N/N=C/c1c[nH]c2ccc(OC)cc12.O=C(O)/C=C\\C(=O)O", "note": "[Form C, Tegaserod maleate]", "values": [{"measurement": "Polymorph form after heating", "setting": "[1]; 2 hr. at 140 deg., listed as C", "value": "C > A"}, {"measurement": "Polymorphic transformation / thermal stability upon heating", "setting": "[1]; listed as C", "value": "transform to Form A upon heating"}]}, {"compound": "CCCCCNC(=N)N/N=C/c1c[nH]c2ccc(OC)cc12.O=C(O)/C=C\\C(=O)O", "note": "[Form A, Tegaserod maleate, reference compound]", "values": [{"measurement": "Polymorphic transformation / thermal stability upon heating", "setting": "[1]", "value": "exhibits thermal stability at higher temperatures"}]}]}
